Measured values published in patent US20040116448A1, “Substances for the therapy of diseases caused by highly proliferating cells” (priority 2001, published 2004).

Assays:
BJAB cells [1] = experiment: Mitochondrial membrane potential (JC-1 staining) in BJAB cells; type: cell-based
Experimental: (§1) Further studies had the result that the BJAB cells are driven to the mitochondrial apoptosis signal pathway by JV-206-1. […] In addition, the fragmentation of the DNA was measured as a specific characteristic of apoptosis as described by Essmann et al. (2000). […] In these experiments, the proportion of apoptotic cells was between 20% and 48% of the total population, depending on the concentration and incubation time.

BJAB cells [2] = experiment: Cell death of BJAB cells after incubation with JV-206-1 (FIG. 6A); type: cell-based; settings: incubation for 48 hours
Experimental: as §1

BJAB cells [3] = experiment: DNA fragmentation (propidium iodide staining, flow cytometry) apoptosis assay in BJAB cells; type: cell-based; settings: 20 μM
Experimental: The measurement of apoptosis is based on a method which detects the fragmentation of DNA on the level of individual cells, which is typical of apoptosis and distinguishes this form of cell death from necrosis. Thus, BJAB cells were treated with different concentrations of N76 or N69 for 24 h. Controls contained corresponding amounts of the solubilizer ethanol. After the treatment, the fragmentation of DNA was measured by staining with propidium iodide followed by quantification by flow cytometry as described by Essmann et al. (2000). The values are stated as % of apoptotic cells based on the total population±SD (n=3).
as §1

[4] = tested on: cells from patients suffering from different leukemias; experiment: DNA fragmentation apoptosis assay in cells from patients suffering from different leukemias; type: cell-based, human; settings: 25 μmol/l, 36 h
Experimental: The usefulness of substances according to the invention for the therapy of various malignant diseases of the hematopoetic system was tested on cells from patients suffering from different diseases. Thus, cells from patients suffering from different leukemias were isolated and, after dilution with cell culture medium, treated for 36 h with 25 μM N69. Controls contained corresponding amounts of the solubilizer ethanol. After the treatment, the fragmentation of the DNA was measured by staining with propidium iodide followed by quantification by flow cytometry as described by Essmann et al. (2000). The result can be seen in FIG. 3. The measured values are stated as % of apoptotic cells based on the total population and represent the mean value from duplicate experiments.

[5] = tested on: lymphoblasts from children afflicted with acute lymphoblastic leukemia (ALL); experiment: DNA fragmentation apoptosis assay in primary lymphoblasts from children with acute lymphoblastic leukemia (ALL); type: cell-based, human; settings: 25 μM, 36 h
Experimental: In this experiment, lymphoblasts from children afflicted with acute lymphoblastic leukemia (ALL) were isolated and, after dilution with cell culture medium, treated for 36 h with 25 μM N76, 25 μM N69 or with 9 μM epirubicin (E) as a positive control. Controls contained corresponding amounts of the solubilizer ethanol. After the treatment, the fragmentation of the DNA was measured by staining with propidium iodide followed by quantification by flow cytometry as described by Essmann et al. (2000). The values are stated as % of apoptotic cells based on the total population±SD (n=3).
Thus, with N76 and N69, two substances of general structural formula 2 are provided as effective agents against certain tumor cells, especially those of childhood ALL, but also against other malignant diseases of different origin. […] In these experiments, the cells from eleven ALL patients were isolated and, after dilution with cell culture medium, treated for 36 h with 25 μM N69, 25 μM N76 or corresponding amounts of cytarabin (AraC), fludarabin or doxorubicin. […] After the treatment, the fragmentation of the DNA was measured by staining with propidium iodide followed by quantification by flow cytometry as described by Essmann et al. (2000). P values were calculated from a paired t test and are stated in FIG. 4 directly for the individual pairs to be compared. […]

BIAB cells = experiment: Combined proliferation and cell death assay (Neubauer cell counting, trypan blue staining); type: cell-based; settings: 25 μM, after 24 h
Experimental: To further characterize the role of the various components of the newly described substances, the iron-complexed compound N69 and the compound obtainable from N69 by cleaving the Fe(CO)3 group were prepared and employed in a combined proliferation and cell death assay. Thus, BIAB cells were treated for 24 h and 72 h. with different concentrations of N69 or the corresponding compound lacking the iron complex. Controls contained corresponding amounts of the solubilizer ethanol. After the treatment, the number of cells was counted in a Neubauer counting chamber, and the number of dead cells was counted by trypan blue staining as described by Wieder et al. (1995). […] FIG. 5B states the proportion of dead cells in %±SD (n=3) as determined at these times at the respective concentration. […] As can be easily seen, the complexed iron plays an important role in the cell-death inducing activity of the substances. The complexed iron shifts the dose-effect curve of the cell-death inducing effect of N69 towards lower concentrations.

CCOC(=O)C=CC1=C[C@H](n2cc(Br)c(=O)[nH]c2=O)C[C@H]1CO[Si](C)(C)C(C)(C)C(C)C.O=[C]=[Fe](=[C]=O)=[C]=O (racemic) [JV-206-1, (3RS,5RS)-3-[3-(5-bromo-2,4-dioxo-3,4-dihydro-2H-pyrimidin-1-yl)-5-[dimethyl-(1,1,2-trimethylpropyl)silanyloxymethyl]-cyclopent-1-enyl]acrylic-acid-ethyl-estertricarbonyliron]
fraction of cells having a reduced mitochondrial membrane potential (ΔΨm) (BJAB cells [1]): concentration-dependent increase
induction of cell death (BJAB cells [2]): induces cell death
cell death by apoptosis (DNA fragmentation) (BJAB cells [3]): major part of the cells die

exo-[2′,2″,3′,3″-η-(3′-(3″-(E)-acrylic-acid-ethyl-ester-3″-yl)-2′,3′-didehydro-2′,3′-dideoxy-5′-O-(dimethylthexylsilyl)-β-D-cytidine)]tricarbonyliron [N69]
induction of apoptotic cell death ([4]; cells from patients suffering from acute myeloblastic leukemia (AML)): induces apoptotic cell death
induction of apoptotic cell death ([4]; cells from patients suffering from chronic myeloblastic leukemia (CML)): induces apoptotic cell death
induction of apoptotic cell death ([4]; cells from patients with a first manifestation of ALL): induces apoptotic cell death
induction of apoptotic cell death ([4]; cells from patients with a recurrence of acute lymphoblastic leukemia (ALL-Rez)): induces apoptotic cell death
pro-apoptotic effect in vitro towards primary ALL cells compared to established cytostatic agents ([5]; cells from eleven ALL patients, versus doxorubicin, cytarabin and fludarabin-5′ dihydrogenphosphate, paired t test): significantly better pro-apoptotic effect
induction of apoptosis in vitro in therapy-resistant cells of patients ([5]; ALL lymphoblasts, in contrast to 9 μM epirubicin (positive control)): induce apoptosis
proportion of dead cells (trypan blue) (BIAB cells): about 90%
